Series [1] can be described thus: Local (subcutaneous) pharmacokinetic study by dermal microdialysis after dermal administration of Huoxuezhitong rubber patch. It is filed as in vivo. The settings on record: Sprague-Dawley, rat, subcutaneous (dermal) microdialysate, topical, male SD rats, mean ± SD, n = 6; for Cmax: maximum subcutaneous concentration, transdermal Huoxuezhitong rubber patch (3.46 cm2), removed after 720 min, corrected by RR; for AUC(0-t): subcutaneous concentration-time curve, read-out: AUC0-720 (converted); for AUC(0-t) / Tmax / MRT last / MRT inf / half-life: transdermal Huoxuezhitong rubber patch; for Tmax: subcutaneous tissue; for MRT last / MRT inf / half-life: subcutaneous; for MRT last: read-out: MRT0-720 (converted); for MRT inf: read-out: MRT0-∞ (converted); for half-life: terminal elimination half-life. The protocol: Before surgery, a rat with the hair on the abdomen shaved off was anesthetized with Urethane (1.5g/ kg, intraperitoneal injection). Its shell temperature was maintained at about 32.5°C during the experiment with the help of an infrared lamp. The linear microdialysis probe was inserted through a 23-gage intravenous needle. Subsequently, the needle was taken out, leaving the dialysis membranes horizontal under the hairless skin.
Implantation and pretreatment of the probe are the same as that described in Section 2.3. Then a round rubber patch (3.46 cm^2) was pasted on the hairless abdomen of the rat, respectively. After 720 min, the paste was scripted away. The skin was wiped softly and carefully to remove the residual drug. Simultaneously, another three samples was collected. If the rats suddenly died, the collection had to be terminated. All samples were immediately stored at 4°C until injected into the LC/MS/MS system for analysis. The sample concentration was corrected by RR.
The pharmacokinetics analysis was conducted by a noncompartmental approach using the Kinetica 5.1. The pharmacokinetics parameters, such as the maximum subcutaneous concentration (Cmax), time of reaching Cmax (Tmax), the area subcutaneous concentration-time curve (AUC0-t), the mean residence time (MRT), and the terminal elimination half-life (t1/2), were calculated on each individual analyte.

The conditions of series [2]: cited from earlier work.

As for `C=CCc1ccc(O)c(OC)c1` [eugenol], in series [1], the Cmax came out at 18.9 ± 7.11 ng/mL, the AUC(0-t) was 119 ng·h/mL, the Tmax was 4 h and the MRT last was 6.2 h. In series [1], the MRT inf is 7.77 h and the half-life was 3.81 ± 2.7 h. In addition, the Water solubility entry in series [2] was “insoluble”.

With `COc1ccc(C(C)=O)c(O)c1` [paeonol], in series [1], the Cmax was determined as 12.6 ± 3.29 ng/mL, the AUC(0-t) is 83.7 ng·h/mL, the Tmax is 3.11 h and the MRT last is 6.06 h. Further, in series [1], the MRT inf was 9.5 h and the half-life worked out at 5.62 ± 3.8 h. Also, in series [2], the Water solubility was 349.8 µg/mL.

For `O=C(/C=C/C=C/c1ccc2c(c1)OCO2)N1CCCCC1` [piperine], in series [1], the Cmax worked out at 1.8 ± 1.22 ng/mL, the AUC(0-t) was 14.7 ng·h/mL, the Tmax is 8.13 h and the MRT last is 9.17 h. Moreover, in series [1], the MRT inf is 11.5 h and the half-life stood at 5.62 ± 0.741 h. Moreover, the Water solubility entry in series [2] was “insoluble”.

As usually defined, the Cmax is the maximum level reached in the sampled fluid or tissue. In general, Tmax refers to the time from dosing to the highest level. As a reminder, the half-life is how long it takes for the measured level to halve. A high value points to slow decline.

Values taken from article PMC6354162, “Development of a MD-LC-MS/MS Method to Analyze 3 Bioactive Compounds in Huoxuezhitong Rubber Patch and Application to a Pharmacokinetic Study in Rats” (Evidence-based Complementary and Alternative Medicine : eCAM, 2019).
